Data on one compound can be found in publication PMC9143054 (Journal of Personalized Medicine, 2022).

Where two headings read alike, the source gives them in different places.

The conditions of data set [1]: cited from earlier work.
Data set [2] is described as follows: Acetaminophen pharmacokinetics after 1 g intravenous infusion (serum LC-MS/MS, noncompartmental analysis). Type of data set: in vivo, human. The procedure:
Serum samples were collected every 30 min starting from the administration until 6 h after the treatment was initiated and immediately frozen at −80 °C until analysis. […] The protocol also included the collection of whole blood samples for genetic analyses.
The samples were mixed for 15 s and kept on ice for 20 min. Then, the samples were centrifuged for 10 min at 3000× g, at 4 °C. The supernatant (750 μL) was evaporated under a nitrogen stream. Then, the samples were resuspended in 40 μL of a mixture containing water ([…]), methanol (2.5%), and formic acid (0.1%). […] The column temperature was set at 20 °C. The flow rate was 0.2 mL/min, and the mobile phase consisted of the following gradient: Mobile phase A: 0.1% formic acid in water; Mobile phase B: 0.1 formic acid in methanol. The elution was started with a proportion of 97.5% A:2.5% B. A linear gradient increase from 2.5% to 65%B over 0.6 min was used, and then, the mobile phase reversed to initial conditions. The mass spectrometer was operated in positive electrospray ionization using multiple reaction monitoring (MRM). The source was set at 500 °C and 5.5 kV. […] Pharmacokinetic analyses were carried out by use of WinNonlin® V5.3 (Pharsight Corporation, St. Louis, MO, USA). The pharmacokinetic model chosen to calculate all parameters was noncompartmental with intravenous infusion. Untransformed data were used for all analyses.

Data set [3] can be described thus: Adverse drug events attributable to acetaminophen in the study participants. The class given is in vivo, human. The note with it: single 1 g iv dose, ICU patients.
The mark [4] stands for this setting: UGT1A6*2/*2 diplotype vs UGT1A6*1/*1.
Setting [5] is: UGT1A6*2/*4 diplotype vs UGT1A6*1/*1.
The mark [6] stands for this setting: concomitant drug therapy: Other (Inhibitors + Inducers) (n = 1), single patient, 1 g iv.
The mark [7] stands for this setting: human, serum, concomitant drug therapy: Other (Inhibitors + Inducers) (n = 1), single patient, 1 g iv.

For orientation: AUC(0-inf) means the area under the concentration-time curve extrapolated to infinity. As a reminder, the AUC(0-t) is the area under the concentration-time curve up to a stated or last time point. What is called MRT is the average time that molecules of a dose stay in the body. With `CC(=O)Nc1ccc(O)cc1` [Acetaminophen], the “fraction of acetaminophen metabolized in vivo” value in data set [1] is given as “about 90%”. In data set [1] (urine), the “acetaminophen glucuronides as share of the metabolites recovered in urine” value is given as “about half” and the “acetaminophen glucuronides as share of the urine metabolites” value was “more than 50%”. Further, the “effect of UGT1A9 genotypes (UGT1A9*1/*3, *3/*3) on pharmacokinetics” value in data set [2] (65 individuals without UGT1A6 variants, Supplementary Table S5) is given as “No major differences”. Also, the “pharmacokinetics in individuals who required on-demand opiates vs those who did not” value in data set [2] (Supplementary Table S6) is recorded as “No significant differences”. Further, in data set [2] (setting [4]), the “increase in drug exposure (AUMC)” value worked out at 66% and the “increase in t1/2 values” was determined as 38%. In data set [2] (setting [5]), the “increase in drug exposure (AUMC)” value is given as 76% and the “increase in t1/2 values” was found to be 31%. In data set [2] (setting [6]), the K10 was 0.45; - 1/h, the “V (volume of distribution)” value is given as 299.16; - mg/(ug/mL) and the Vss is listed as 299.16; - mg/(ug/mL). In data set [2] (homozygous or double heterozygous for variant UGT1A6 alleles vs UGT1A6*1/*1), the “increase in t1/2 values” is given as 22.5%. Also, the half-life in data set [2] (human, serum, intravenous, 1 g, whole study group, from less than 0.5 h up to more than 3.5 h, read-out: half-life (t1/2) values, range across individuals) was 0.5 to 3.5 h. Besides, in data set [2] (setting [7]), the AUC(0-inf) was 7440 ng·h/mL, the AUC(0-t) amounted to 6660 ng·h/mL, the C0 turned out to be 3340 ng/mL and the MRT was found to be 2.23 h. Further, the half-life in data set [2] (human, serum, concomitant drug therapy: Other (Inhibitors + Inducers) (n = 1), single patient, 1 g iv, read-out: t1/2 (converted)) is 1.54 h. Moreover, the “adverse drug events attributable to acetaminophen” value in data set [3] was “None of the participants developed adverse drug events”.
